# Entries after “also recorded” stand apart in the source; their conditions may differ. Structures can show the parent of a compound that is named as a salt.
# Assays:
# mice [1] = assay: four plate test, traction and electric shock; assay type: in vivo, mouse; conditions: i.p.
# Experimental: The test is performed on groups of 10 mice 30 minutes after the administration of CRL 41 224.
# mice [2] = assay: motility reduced by hypoxic aggression; assay type: in vivo, mouse; conditions: i.p.
# Experimental: Half an hour after they have received CRL 41 224, the mice (10 per dose, 20 control animals) are subjected to acute hypobaric anoxia [pressure reduction of 600 mm Hg (i.e. about 8×10^4 Pa) in 90 seconds; release of vacuum in 45 seconds] and are then placed in an actimeter, where their motility is recorded for 10 minutes.
# mice [3] = assay: overall behavior and reactivities in mice; assay type: in vivo, mouse; conditions: i.p.
# Experimental: (§1) Groups of three animals are observed before and then 0.25 hour, 0.50 hour, 1 hour, 2 hours, 3 hours and 24 hours after the administration of CRL 41 224.
# mice [4] = assay: interaction with apomorphine in mice; assay type: in vivo, mouse; conditions: i.p.
# Experimental: Groups of 6 mice receive CRL 41 224 0.5 hour before the subcutaneous injection of 1 or 16 mg/kg of apomorphine.
# mice [5] = assay: interaction with barbital; assay type: in vivo, mouse; conditions: i.p.; dose not stated
# Experimental: Half an hour after the administration of CRL 41 224, groups of 10 mice receive an intraperitoneal injection of barbital (220 mg/kg).
# [6] = system: peripheral α-adrenergic stimulation; assay: signs of peripheral adrenergic stimulation; assay type: in vivo, mouse; rat; conditions: i.p.; dose not stated
# Experimental: as §1
# rats [7] = assay: overall behavior and reactivities in rats; assay type: in vivo, rat; conditions: i.p., dose not stated
# Experimental: as §1
# mice [8] = assay: motility reduced by habituation to the enclosure; assay type: in vivo, mouse; conditions: i.p.
# Experimental: After they have stayed in the actimeters for 18 hours, the mice (6 per dose, 12 control animals) receive CRL 41 224. They are immediately returned to their respective enclosures and, half an hour later, their motility is recorded for 30 minutes.
# mice [9] = assay: interaction with reserpine; assay type: in vivo, mouse; conditions: i.p.
# Experimental: Four hours after the intraperitoneal injection of 2.5 mg/kg of reserpine, groups of 6 mice receive CRL 41 224.
# mice [10] = assay: toxicity to grouped mice compared with isolated mice; assay type: in vivo, mouse
# rats [11] = assay: interaction with amphetamine; assay type: in vivo, rat; conditions: i.p.
# Experimental: Amphetamine (2 mg/kg) is injected intraperitoneally into groups of 6 rats 30 minutes after the administration of CRL 41 224.
# CNS = assay: overall neuropsychopharmacological (CNS) profile; assay type: in vivo, mouse; rat; conditions: i.p.
# Experimental: The neuropsychopharmacological study of CRL 41 219 was carried out as indicated above for CRL 41 224.
# The neuropsychopharmacological study of CRL 41 220 was carried out in accordance with the procedures given above for CRL 41 224.
# rats [12] = assay: action on stereotypies in rats (α-methyltyrosine, haloperidol, reserpine); conditions: i.p.
# mice [13] = assay: action on the behavioral despair; assay type: in vivo, mouse; conditions: i.p.
# Excerpt: Half an hour after they have received CRL 41 224, groups of 6 mice are placed in a beaker filled with water to a height of 6 cm. The total period of immobility between the 2nd and 6th minutes following immersion is noted.
# rats [14] = assay: interaction with apomorphine in rats; assay type: in vivo, rat; conditions: i.p., dose not stated
# Experimental: CRL 41 224 is administered to groups of 6 rats 0.5 hour before the subcutaneous injection of 0.5 mg/kg of apomorphine.
# mice [15] = assay: action on the spontaneous motility (actimeter); assay type: in vivo, mouse; conditions: mice, i.p.; dose not stated
# Experimental: 0.5 hour after they have received CRL 41 224, the mice (6 per dose, 12 control animals) are placed in an actimeter, where their motility is recorded for 30 minutes.
# mice [16] = assay: interaction with oxotremorine; assay type: in vivo, mouse; conditions: i.p.
# Experimental: CRL 41 224 is administered to groups of 6 mice 0.5 hour before the intraperitoneal injection of 0.5 mg/kg of oxotremorine.
# male mice [17] = assay: acute toxicity, intraperitoneal (lethal doses); assay type: in vivo, mouse; conditions: i.p.
# Experimental: By intraperitoneal administration to male mice, the LD-30 (lethal dose for 30% of the animals tested) is of the order of 128 mg/kg and the LD-50 is of the order of about 200 mg/kg.
# [18] = system: delayed hypersensitivity to the red blood corpuscles of sheep; assay: delayed hypersensitivity to the red blood corpuscles of sheep (Miller); assay type: in vivo
# immunological properties = assay: immunological properties, overall; assay type: in vivo; conditions: dose not stated
# Excerpt: The present 1-(acetylaminophenyl)-2-aminopropanone derivatives are useful in therapy. They all act on the CNS, more precisely as antidepressants. They have a stimulant or excitant component in their neuropsychopharmacological profile.
# [19] = system: spleen cells expressing a direct IgM antibody response; assay: test for cells forming lysis areas (PFC IgM, Cunningham); assay type: in vivo, mouse; conditions: 0.1, 10 and 100 mg/kg
# Experimental: Immunological assays were carried out in order to point out the interest of CRL 41 240 as an immunomodulating agent. Specifically, the test used was the so-called test for cells forming lysis areas, described by A. J. […] et al. ("Further improvements in the plaque technique for detecting simple antibody forming cells"), Immunology 14, pages 599-601 (1968).
# The test for cells forming lysis areas (or PFC IgM) explores the humoral immunity. Four days after immunization with a T-dependent antigen (in this case red blood corpuscles of sheep), the spleen cells expressing a direct IgM antibody response are counted. The mice used for this purpose are conventional female OF1 mice devoid of specific pathogenic organisms, weighing from 20 to 30 g and divided up into a control group of 14 animals and groups each containing 7 animals per dose and per product to be studied, administered orally on the same day as the antigen. An activity index I is calculated for each dose of product according to the following equation: [formula]
# This test is performed at least twice for each dose of test product [C(control amimals), 0.01, 0.1, 10 and 100 mg/kg] and a statistical study is undertaken using the Student t test after variance analysis on the number of lyses per spleen.
# male mice [20] = assay: influence of catecholamines on hyperactivity in mice; assay type: in vivo, mouse; conditions: I.V.C., 10 μg
# Experimental: A further series of assays was carried out on mice according to the teaching of S. L. HANDLEY et al. "Influences of catecholamines on dexamphetamine, induced changes in locomotor activity", Psychopharmacology 58, 283-288 (1978), in order to observe a potential influence of dopamine or moradrenaline on the hyperactivity induced by CRL 41 152.
# After a habituation period of 1.5 h to the actimeters, male mice (grouped into batches of 10 animals each and a control batch of 20 animals) were administered (under slight anesthesia with ether) per intraventriculocerebral injection (i.e. I.V.C. route) with (i) either 10 μg of noradrenaline, or 10 μg of dopamine or 10 μl (0.5 μl/second) of saline solution, then (ii) 5 minutes later, with CRL 41 152 (in solution in distilled water) per I.P. route in a volume of 20 ml/kg, immediately before replacing the mice in the actimeters vherein their motility was recorded for 1 hour by measuring the number of crossed rays per period of 5 minutes).
# Batches receiving CRL 41 152 per I.P. route with noradreanaline or dopamine per I.V.C. route were compared with (i) the control batch receiving the saline solution per I.V.C. route then distilled water per I.P. route, and (ii) batches receiving only noradrenaline, dopamine (per I.V.C. route) or CRL 41 152 (per I.P. route).
# dogs = assay: cardiovascular action in anesthetized dogs; assay type: in vivo, dog; conditions: control dogs, noradrenaline alone
# Experimental: Four dogs (average weight: 13.8 kg), anesthetized with nembutal, receive CRL 41 220 by intraduodenal administration at successive doses of 0.1 mg/kg, 0.5 mg/kg, 1 mg/kg, 2.5 mg/kg, 5 mg/kg and 10 mg/kg. The blood pressure, the heart beat, the flow rate through the femoral artery, the flow rate through the vertebral artery and the rectal and/or skin temperature are measured and the coloration of the skin and the bile (collected by catheterization of the bile duct after ligature of the cystic duct) is observed.
structure (smiles),measurement,setting,value
CCCNC(C)C(=O)c1ccc(NC(C)=O)cc1 (centres unmarked) [CRL 41 212],convulsant effects of electric shock,mice [1]; dose not stated,anticonvulsant effects
same,motor recovery after hypoxic aggression,mice [2]; dose not stated,an improvement in the motor recovery in mice after acute hypoxia
same,excitation in mice,"mice [3]; mice, dose not stated",excitation with hyperreactivity in mice
same,hypothermia induced by apomorphine,mice [4]; dose not stated,antagonism of the hypothermia induced by apomorphine
same,sleep induced by barbital,mice [5],antagonism of the sleep induced by barbital
same,exophthalmos,[6],absent
same,mydriasis,[6],mydriasis
same,"peripheral adrenergic stimulation, overall",[6],effects which may reflect peripheral adrenergic stimulation
same,salivation,[6],absent
same,stereotype movements in rats,rats [7],stereotype movements in rats
same,motor activity after habituation to the enclosure,mice [8]; dose not stated,a resumption in the motor activity of mice accustomed to their enclosure
same,hypothermia induced by reserpine,mice [9]; dose not stated,"antagonism of the hypothermia induced by apomorphine, oxotremorine or reserpine"
same,ptosis induced by reserpine,mice [9]; dose not stated,antagonism of the ptosis induced by reserpine
same,toxicity to grouped mice compared with isolated mice,mice [10],do not increase the toxicity to grouped mice
same,stereotypies induced by amphetamine,"rats [11]; rats, dose not stated",potentiation of the stereotypies induced by apomorphine or amphetamine
same,overall action on the CNS,"CNS; mice and rats, dose not stated",stimulant effects; also recorded: antidepressant effects
same,suppression of induced stereotype movements by prior injection of alpha-methyltyrosine,rats [12],not suppressed
same,"period of immobility or ""despair""",mice [13]; dose not stated,a reduction in the immobility
same,stereotypies induced by apomorphine,rats [14],potentiation of the stereotypies induced by apomorphine
same,spontaneous motility / motor activity,mice [15],an increase in the spontaneous motility in mice
same,hypothermia induced by oxotremorine,mice [16]; dose not stated,"antagonism of the hypothermia induced by apomorphine, oxotremorine"
same,trembling caused by oxotremorine,mice [16]; dose not stated,antagonism of the trembling caused by oxotremorine
CC(=O)Nc1ccc(C(=O)C(C)N2CCSCC2)cc1 (centres unmarked) [CRL 41 247],convulsant effects of electric shock,mice [1]; strong/high dose,a reduction in the convulsant effects of electric shock
same,motor activity after acute hypoxia,mice [2]; strong doses,an increase in the motor activity of mice after habituation to their enclosure and after acute hypoxia
same,"hypothermia, temperature change","mice [3]; 256 mg/kg, 30 minutes after administration",-3.3 °C
same,body temperature (hypothermia),mice [3]; strong/high doses,hypothermia
same,hypothermia induced by apomorphine,mice [4]; strong doses,very moderate antagonism of the hypothermia induced by apomorphine
same,LD-0 (maximum non-lethal dose),male mice [17],greater than 512 mg/kg
same,LD-60,male mice [17],about 1000 mg/kg
same,cell activity (technique of Miller et al.),[18]; dose not stated,stimulates cell activity
same,motor activity after habituation to the enclosure,mice [8]; strong doses,an increase in the motor activity of mice after habituation to their enclosure
same,hypothermia induced by reserpine,mice [9]; strong doses,no antagonism towards the hypothermia induced by reserpine
same,stereotypies induced by amphetamine,rats [11]; strong doses,potentiation of the stereotypies induced by amphetamine
same,overall action on the CNS,CNS; strong/high doses,discreet antidepressant effects; also recorded: stimulant effects
same,period of immobility of mice forcibly immersed,mice [13]; strong/high doses,a reduction in the period of immobility
same,"immunological properties, overall",immunological properties,beneficial immunomodulating effects
same,hypothermia induced by oxotremorine,mice [16]; strong/high doses,very moderate antagonism of the hypothermia induced by apomorphine and oxotremorine
"CC(=O)Nc1cccc(C(=O)C(C)N2CCCCC2)c1 (centres unmarked) [CRL 41 262, 1-(3-acetylaminophenyl)-2-piperidinopropanone hydrochloride]","immunostimulant activity, PFC IgM test",[19],immunostimulant activity
same,"immunostimulant activity, delayed hypersensitivity","[18]; oral, 10 and 100 mg/kg",immunostimulant activity
same,overall action on the CNS,"CNS; mice and rats, dose not stated",antidepressant and stimulant effects on the CNS
same,"immunological properties, overall",immunological properties; hydrochloride,beneficial immunomodulating effects; also recorded: particularly valuable as an immunomodulator
"NCCc1ccc(O)c(O)c1 [dopamine, reference compound]",locomotor effect by comparison with saline,male mice [20],did not cause any visible locomotor effect
"NC[C@H](O)c1ccc(O)c(O)c1 [noradrenaline, reference compound]","systolic blood pressure with 2 μg/kg of noradrenaline, control animals",dogs,323 mm Hg
same,locomotor effect by comparison with saline,male mice [20],did not cause any visible locomotor effect

# Reference: patent publication US4963570A, “1-(acetylaminophenyl)-2-aminopropanone derivatives and pharmaceutical compositions thereof” (Laboratoire L. Lafon, priority 1983, dated 1990)
